A word on the melting point: it is the temperature, or range, at which the solid turns liquid. By Ki is commonly meant the equilibrium dissociation constant of an inhibitor or competing ligand from its target.

Data set [1] addresses T1, hCA II (Homo sapiens, UniProt P00918).
T1 construct: made in house
Put plainly: stopped flow CO2 hydrase assay, CA inhibition. It is filed as biochemical. The note with it: recombinant enzyme, pH 7.4, 10 min pre-incubation, from 3 different assays. As for the experimental part: (§1) An SX.18 MV-R Applied Photophysics (Oxford, UK) stopped-flow instrument has been used to assay the catalytic/inhibition of various CA isozymes. […] Stock solutions of inhibitors were prepared at a concentration of 10 mM (in DMSO-water 1:1, v/v) and dilutions up to 0.01 nM done with the assay buffer mentioned above. […] Inhibitor and enzyme solutions were pre-incubated together for 10 min at room temperature prior to assay, in order to allow for the formation of the E-I complex. […] The inhibition constants were obtained by nonlinear least-squares methods using the Cheng-Prusoff equation, as reported earlier, and represent the mean from at least three different determinations.

Data set [2] deals with T2, hCA IX (Homo sapiens, UniProt Q16790).
T2 construct: made in house
Put plainly: stopped flow CO2 hydrase assay, CA inhibition. Type of data set: biochemical. Particulars: recombinant enzyme, pH 7.4, 10 min pre-incubation, from 3 different assays. As for the experimental part:
as §1

The target in data set [3] is T3, hCA I (Homo sapiens, UniProt P00915).
T3 construct: made in house
T3 sequence (P00915 whole entry): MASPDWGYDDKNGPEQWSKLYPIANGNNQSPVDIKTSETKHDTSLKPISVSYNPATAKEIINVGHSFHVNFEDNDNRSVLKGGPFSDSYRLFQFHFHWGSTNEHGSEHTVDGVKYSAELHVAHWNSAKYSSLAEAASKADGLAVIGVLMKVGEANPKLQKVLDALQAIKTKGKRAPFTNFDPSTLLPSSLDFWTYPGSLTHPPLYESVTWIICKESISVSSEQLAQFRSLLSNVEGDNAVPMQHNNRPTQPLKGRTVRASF
Description: stopped flow CO2 hydrase assay, CA inhibition. Type of data set: biochemical. The note with it: recombinant enzyme, pH 7.4, 10 min pre-incubation, from 3 different assays. The procedure:
as §1

Data set [4] deals with T4, hCA XII (Homo sapiens, UniProt O43570).
T4 construct: made in house
T4 sequence (O43570 25-354): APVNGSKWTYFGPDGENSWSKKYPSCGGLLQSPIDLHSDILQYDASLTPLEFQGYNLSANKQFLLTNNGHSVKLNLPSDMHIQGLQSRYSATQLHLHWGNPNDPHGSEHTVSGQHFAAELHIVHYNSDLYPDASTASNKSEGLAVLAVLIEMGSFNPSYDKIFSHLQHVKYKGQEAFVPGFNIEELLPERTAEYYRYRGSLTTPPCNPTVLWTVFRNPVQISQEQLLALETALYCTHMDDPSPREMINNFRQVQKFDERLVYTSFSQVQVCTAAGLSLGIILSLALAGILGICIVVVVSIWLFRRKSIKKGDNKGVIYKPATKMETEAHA
Put plainly: stopped flow CO2 hydrase assay, CA inhibition. It is filed as biochemical. The note with it: recombinant enzyme, pH 7.4, 10 min pre-incubation, from 3 different assays. The procedure: as §1

Molecules are shown by their SMILES. Some results are limits rather than exact numbers.

`Cc1ccc(NC(=O)Nc2cccc(S(N)(=O)=O)c2)cc1NC(=O)Nc1cccc(S(N)(=O)=O)c1` [Compound 15, 3,3'-((((4-Methyl-1,3-phenylene)bis(azanediyl))bis(carbonyl))bis(azanediyl))dibenzenesulfonamide] registered a melting point of 233 to 234 °C. Besides, the inhibition constant (Ki) in data set [1] is 80.8 nM. The inhibition constant Ki in data set [2] is 81.1 nM. Besides, the Ki in data set [3] is 5000 nM. Moreover, the Ki in data set [4] was 67.1 nM.
The like results for `NS(=O)(=O)c1ccc(NC(=O)Nc2ccc(Cc3ccc(NC(=O)Nc4ccc(S(N)(=O)=O)cc4)cc3)cc2)cc1` [Compound 9, 4,4'-((((Methylenebis(4,1-phenylene))bis(azanediyl))bis(carbonyl))bis(azanediyl))dibenzenesulfonamide] were, in that order, 293 to 294 °C, 484 nM, 835 nM, 6280 nM and 429 nM.
The like results for `NS(=O)(=O)c1cccc(NC(=O)Nc2ccc(Cc3ccc(NC(=O)Nc4cccc(S(N)(=O)=O)c4)cc3)cc2)c1` [Compound 13, 3,3'-((((Methylenebis(4,1-phenylene))bis(azanediyl))bis(carbonyl))bis(azanediyl))dibenzenesulfonamide] were, in that order, 293 to 295 °C, 306 nM, 78.7 nM, 9170 nM and 27.7 nM.
In the same order, the values of `NS(=O)(=O)c1cccc(NC(=O)Nc2ccc(NC(=O)Nc3cccc(S(N)(=O)=O)c3)cc2)c1` [Compound 12, 3,3'-(((1,4-Phenylenebis(azanediyl))bis(carbonyl))bis(azanediyl))dibenzenesulfonamide] are over 300 °C, 550 nM, 63.8 nM, 6520 nM and 63.2 nM.
`Cc1ccc(NC(=O)Nc2ccc(S(N)(=O)=O)cc2)cc1NC(=O)Nc1ccc(S(N)(=O)=O)cc1` [Compound 11, 4,4'-((((4-Methyl-1,3-phenylene)bis(azanediyl))bis(carbonyl))bis(azanediyl))dibenzenesulfonamide]: the melting point was in the range of 279 to 281 °C. Moreover, the Ki in data set [1] is 4.4 nM. Besides, the Ki in data set [2] worked out at 6.73 nM. Besides, in data set [3], the Ki amounted to 68.1 nM. Besides, the Ki in data set [4] was found to be 7.39 nM.
In turn, `Cc1ccc(NC(=O)NCCc2ccc(S(N)(=O)=O)cc2)cc1NC(=O)NCCc1ccc(S(N)(=O)=O)cc1` [Compound 19, 4,4'-(((((4-Methyl-1,3-phenylene)bis(azanediyl))bis(carbonyl))bis(azanediyl))bis(ethane-2,1-diyl))dibenzenesulfonamide] returned a melting point of 245 to 247 °C. The inhibition constant Ki in data set [1] came out at 25.8 nM. For the same compound, in data set [2], the Ki came out at 8.92 nM. For the same compound, the inhibition constant Ki in data set [3] stood at 95.4 nM. Moreover, in data set [4], the Ki turned out to be 5.02 nM.
In the same order, the values of `Cc1cc(-c2ccc(NC(=O)Nc3cccc(S(N)(=O)=O)c3)c(C)c2)ccc1NC(=O)Nc1cccc(S(N)(=O)=O)c1` [Compound 14, 3,3'-((((3,3'-Dimethyl-[1,1'-biphenyl]-4,4'-diyl)bis(azanediyl))bis(carbonyl))bis(azanediyl))dibenzenesulfonamide] are over 300 °C, 637 nM, 578 nM, 688 nM and 67.9 nM.
`NS(=O)(=O)c1ccc(NC(=O)Nc2ccc(NC(=O)Nc3ccc(S(N)(=O)=O)cc3)cc2)cc1` [Compound 8, 4,4'-(((1,4-Phenylenebis(azanediyl))bis(carbonyl))bis(azanediyl))dibenzenesulfonamide] showed a melting point of over 300 °C. Besides, in data set [1], the Ki worked out at 680 nM. Also, in data set [2], the Ki was 57.5 nM. Besides, in data set [3], the inhibition constant Ki stood at 7280 nM. Moreover, the Ki in data set [4] was found to be 37.3 nM.
`Cc1cc(-c2ccc(NC(=O)Nc3ccc(S(N)(=O)=O)cc3)c(C)c2)ccc1NC(=O)Nc1ccc(S(N)(=O)=O)cc1` [Compound 10, 4,4'-((((3,3'-Dimethyl-[1,1'-biphenyl]-4,4'-diyl)bis(azanediyl))bis(carbonyl))bis(azanediyl))dibenzenesulfonamide] returned a melting point of over 300 °C. For the same compound, the Ki in data set [1] stood at 302 nM. The Ki in data set [2] was found to be 86.4 nM. The inhibition constant Ki in data set [3] turned out to be 947 nM. The Ki in data set [4] turned out to be 52.3 nM.
`Cc1cc(-c2ccc(NC(=O)NCCc3ccc(S(N)(=O)=O)cc3)c(C)c2)ccc1NC(=O)NCCc1ccc(S(N)(=O)=O)cc1` [Compound 18, 4,4'-(((((3,3'-Dimethyl-[1,1'-biphenyl]-4,4'-diyl)bis(azanediyl))bis(carbonyl))bis(azanediyl))bis(ethane-2,1-diyl))dibenzenesulfonamide] had a melting point of over 300 °C. Further, the Ki in data set [1] is 604 nM. In addition, the inhibition constant (Ki) in data set [2] came to 93.7 nM. Moreover, the inhibition constant Ki in data set [3] is 8310 nM. The Ki in data set [4] was 60.3 nM.
In the case of `NS(=O)(=O)c1ccc(CCNC(=O)Nc2ccc(Cc3ccc(NC(=O)NCCc4ccc(S(N)(=O)=O)cc4)cc3)cc2)cc1` [Compound 17, 4,4'-(((((Methylenebis(4,1-phenylene))bis(azanediyl))bis(carbonyl))bis(azanediyl))bis(ethane-2,1-diyl))dibenzenesulfonamide], the melting point lay within 270 to 272 °C. For the same compound, the Ki in data set [1] turned out to be 792 nM. Also, the Ki in data set [2] was found to be 91.9 nM. Also, the Ki in data set [3] amounted to 5350 nM. Besides, in data set [4], the Ki is 33.6 nM.
Turning to `NS(=O)(=O)c1ccc(CCNC(=O)Nc2ccc(NC(=O)NCCc3ccc(S(N)(=O)=O)cc3)cc2)cc1` [Compound 16, 4,4'-((((1,4-Phenylenebis(azanediyl))bis(carbonyl))bis(azanediyl))bis(ethane-2,1-diyl))dibenzenesulfonamide], the melting point is over 300 °C. In addition, the inhibitory constant (Ki) in data set [1] was determined as 424 nM. Moreover, the inhibitory constant (Ki) in data set [2] is 68.7 nM. Moreover, the Ki in data set [3] turned out to be 2910 nM. The Ki in data set [4] is 82.8 nM.
